As a reminder, the melting point is the temperature, or range, at which the solid turns liquid.

The values below come from patent US6579983B1, “5-cyano-2-aminopyrimidine derivatives” (Celltech R&D Limited, priority 1999, dated 2003).

On to `CC(C)(N)c1ccc(-c2nc(Nc3ccc4[nH]ncc4c3)ncc2C#N)cc1` [Example 8, 4-[4-(1-Amino-1-methylethyl)phenyl]-5-cyano-N-(indazol-5-yl)pyrimidine-2-amine], for which the melting point is 267 to 271 °C (dec.).
For `COc1cc(Nc2ncc(C#N)c(-c3ccc(C(C)(C)N)cc3)n2)cc(OC)c1OC` [Example 9, 4-[4-(1-Amino-1-methylethyl)phenyl]-5-cyano-N-(3,4,5-trimethoxyphenyl)pyrimidine-2-amine] the value was 167 to 168 °C.
